{"source": "patent US7666307B2", "about": "“Particle size reduction of bioactive compounds” (K.U. Leuven Research & Development, priority 2003, dated 2010)", "key": {"[1]": {"conditions": "cited from earlier work"}, "[2]": {"assay": "Dissolution test of loperamide samples, USP 24 paddle method, HPLC", "type": "physicochemical", "conditions": "37 °C, paddle 100 rpm", "procedure": "Four different samples containing loperamide (commercially available from Janssen Pharmaceutica, Beerse, Belgium) were prepared and their dissolution profiles were measured. 1 g/l of loperamide and 10 g/l of Aerosil 380 (a silicate commercially available from Degussa, Dusseldorf, Germany) were mixed with bi-distilled water in a mortar. An untreated sample was prepared by fast solidification of part of this suspension in a pre-cooled ball that was kept in liquid nitrogen followed by freeze-drying. […]\nDissolution experiments were performed in a SR8 PLUS Hanson dissolution test station (commercially available from Chatsworth, United States) while using the USP 24 method (paddle method, 100 rpm). […] The corresponding concentrations were determined from the calibration curve with HPLC.\nThe HPLC system used for this determination consisted of LiChroGraph® L-7100 HPLC pump, an auto-sampler model L-7200 equipped with a 100 μl loop, a UV detector model L-7400 set at 220 nm, and an Interface D-7000, all from commercially available from Merck-Hitachi (Darmstadt, Germany). UV signals were monitored and peaks were integrated using the D-7000 HSM software. […]"}}}
{"smiles": "CCCCNc1ccc(C(=O)OCCN(C)C)cc1", "note": "[tetracaine]", "values": [{"measurement": "average particle diameter", "setting": "[1]; aqueous nanosuspensions, U.S. Pat. No. 5,858,410", "result": 91, "unit": "nm"}]}
{"smiles": "C#C[C@]1(O)CC[C@H]2[C@@H]3CCC4=Cc5oncc5C[C@]4(C)[C@H]3CC[C@@]21C", "note": "[danazol]", "values": [{"measurement": "size to which 10% of the particles are reduced", "setting": "[1]; dispersion refined by electric field, U.S. Pat. No. 5,503,723", "result": 180, "unit": "nm"}]}
{"smiles": "CN(C)C(=O)C(CCN1CCC(O)(c2ccc(Cl)cc2)CC1)(c1ccccc1)c1ccccc1", "note": "[loperamide]", "values": [{"measurement": "dissolution rate versus corresponding untreated sample", "setting": "[2]; magnetic treatment in the presence of a silicate (Aerosil)", "result": "significantly increased"}, {"measurement": "dissolution rate versus corresponding untreated sample", "setting": "[2]; magnetic treatment in the presence of a surfactant (Tween 80)", "result": "significantly increased"}]}
